Assay results taken from US8247444B2, “Anti-tumor effect of dimeric phthalide compound” (priority 2007, dated 2012).
≈ marks a conversion by molar mass, not a printed value.

Tests used:
K562 = experiment: Growth inhibition of sensitive and drug-resistant cell lines (IC50), K562; format: cell-based; conditions: Homo sapiens; K562 cells
Method: (§1) The human lung cancer cell H1299 and H446, glioma cell U251 and U87MG, and human hepatic cellular cancer Bel-7402 cell in logarithmic growth phase were digested with pancreatic enzyme, and then suspended into DMEM or RPMI1640 containing 10% fetal bovine serum. The leukemic cells Kasumi-1 need no digestion, and were suspended into RPMI1640 containing 10% fetal bovine serum directly after centrifugalization. The cell density was adjusted to 1×10^4 cells/ml through cell counting, and the cell suspensions were seeded into a 96-well plate respectively, 100 μl/well, totally 6 groups of cells. The adherent cells were cultured overnight, the suspended cells were added different concentration gradients of dimeric phthalide compounds (S1-S6) directly, n=6 for each concentration of a single agent. The final volume was 200 ul, and the balance was supplemented with the culture medium. The plate was then incubated for 68 hours in 37° C., saturated humidity, 5% CO2 cell incubator. The medium was aspirated and 72 μl/well fresh culture medium was added. 8 μl […] (CCK-8) was added into each well and cultured for 2 hours. The absorbance was measured at 450 nm. The results were calculated as the 50% inhibiting drug concentration, i.e. IC50, using Sigmoidal simulation function by software Origin 7.0.
(§2) The cancer cells (various cell lines as shown in table 1 or FIG. 3) were seeded 1×10^3 cells per well into a 96-well plate. The suspended cells were added different concentration of dimeric phthalide compounds (S1-S6) directly, and the adherent cells were cultured overnight and added different concentration of dimeric phthalide compounds (S1-S6). The different concentration of dimeric phthalide compounds were divided into 10 groups: 0, 0.1, 0.5, 1, 5, 10, 20, 40, 80, 160 μg/ml, n=6 for each concentration.
(§3) According to the method described in Example 2, […] was detected and IC50 was calculated. The experiment was repeated for 3 times.
(§4) The growth inhibition effects of dimers of S1-S6 on its sensitive cell lines as well as the drug-resistant sub-strains (IC50 (μg/ml)) were shown in table 1 and FIG. 3.

K562/Adr = experiment: Growth inhibition of sensitive and drug-resistant cell lines (IC50), K562/Adr; format: cell-based; conditions: Homo sapiens; K562/Adr drug-resistant cells
Source text: (§5) HL-60/ADR, MCF-7/ADR, K562/ADR, Bel-7402/5-FU, KBV200, SMMC-7721/Adr were respectively chemotherapeutics Adriamycin (ADR), 5-Fluorouracil (5-FU) or vincristine (VCR) drug-resistant sub-stains of HL-60, MCF-7, K562, Bel-7402, KB, SMMC-7721 cells (all from Chinese Academy of Medical Sciences). NB4-R2 was all trans-retinoic acid (ATRA) drug-resistant sub-stain (from Pathophysiology Research Department of Shanghai JiaoTong University). The main drug-resistance mechanism of K562/ADR was high expression of P-glycoprotein (P-gp), along with increased expression of Bcl-2. In addition to high expression of P-gp, the drug-resistance mechanism of MCF-7/ADR also related to the high expression of Breast Cancer Resistant Protein (BCRP). The main drug-resistance mechanism of HL-60/ADR was high expression of Multidrug Resistance Protein 1 (MRP1), along with high expression of Bcl-2, Bcl-xL. […] The main drug-resistance mechanism of KBV200 was high expression of P-gp and its increased activity. The drug-resistance mechanism of NB4-R2 on ATRA was mutation in the RAR gene locus.
as §1, §2, §3, §4

KB [1] = experiment: Growth inhibition of sensitive and drug-resistant cell lines (IC50), KB; format: cell-based; conditions: Homo sapiens; KB cells, Table 1
Method: (§6) In the following Examples, the cell lines used were H1299, H446 (human lung cancer cell line), KB (human oral cavity carcinoma cell line), NB4, HL-60 (human leukemic cell line), U251 ? U87MG (human glioblastoma cell line), MCF-7 (human breast carcinoma cell line), Bel-7402 and SMMC7721 (human hepatic cellular cancer cell line), SW620 (human colon carcinoma cell line), HDF (human dermis fibroblast), HUVEC (human umbilical vein endothelial cell line) and Kasumi-1 (human acute myeloid leukaemia cell line), all from American Type Culture Collection (ATCC).
as §1, §2, §3, §4

KBv200 = experiment: Growth inhibition of sensitive and drug-resistant cell lines (IC50), KBv200; format: cell-based; conditions: Homo sapiens; KBv200 drug-resistant cells
Source text: as §5, §1, §2, §3, §4

MCF-7 = experiment: Growth inhibition of sensitive and drug-resistant cell lines (IC50), MCF-7; format: cell-based; conditions: Homo sapiens, MCF7; MCF-7 cells
Method: as §6, §1, §2, §3, §4

MCF-7/Adr = experiment: Growth inhibition of sensitive and drug-resistant cell lines (IC50), MCF-7/Adr; format: cell-based; conditions: Homo sapiens, NCI/ADR-RES; MCF-7/Adr drug-resistant cells
Source text: as §5, §1, §2, §3, §4

Bel-7402 [2] = experiment: Growth inhibition of sensitive and drug-resistant cell lines (IC50), Bel-7402; format: cell-based; conditions: Homo sapiens; Bel-7402 cells, Table 1
Method: as §6, §1, §2, §3, §4

Bel-7402/5-Fu = experiment: Growth inhibition of sensitive and drug-resistant cell lines (IC50), Bel-7402/5-Fu; format: cell-based; conditions: Homo sapiens, Bel7402/5-FU; Bel-7402/5-Fu drug-resistant cells
Source text: as §5, §1, §2, §3, §4

SMMC-7721 = experiment: Growth inhibition of sensitive and drug-resistant cell lines (IC50), SMMC-7721; format: cell-based; conditions: Homo sapiens; SMMC-7721 cells
Method: as §6, §1, §2, §3, §4

SMMC-7721/Adr = experiment: Growth inhibition of sensitive and drug-resistant cell lines (IC50), SMMC-7721/Adr; format: cell-based; conditions: Homo sapiens; SMMC-7721/Adr drug-resistant cells
Source text: as §5, §1, §2, §3, §4

HUVEC = experiment: Vascular endothelial cell inhibition assay (CCK-8), HUVEC; format: cell-based; conditions: Homo sapiens, 72 h
Method: (§7) 2×10^3 cells were seeded into a 96-well plate and cultured for 24 h. S1-S6 of different concentrations (0, 0.01, 0.1, 0.5, 1, 2.5, 5, 10, 20, 40, 80, 160 μg/ml, respectively) were added and incubated for 72 h, n=6 for each concentration. The inhibition of cell proliferation was detected by CCK-8 assay, the results were calculated as IC50, as describe in Example 3.

HDF = experiment: Vascular endothelial cell inhibition assay (CCK-8), HDF; format: cell-based; conditions: Homo sapiens, 72 h
Method: as §7

KB [3] = experiment: Vascular endothelial cell inhibition assay (CCK-8), KB; format: cell-based; conditions: Homo sapiens, 72 h, CCK-8, Table 2
Method: as §7

Bel-7402 [4] = experiment: Vascular endothelial cell inhibition assay (CCK-8), Bel-7402; format: cell-based; conditions: Homo sapiens, 72 h, CCK-8, Table 2
Method: as §7

[5] = test system: secretion of VEGF in H1299 cell; experiment: VEGF in supernatant of tumor cell H1299 culture (VEGF-ELISA); format: cell-based, human; conditions: H1299, compound 5 μg/ml, 24 h; for inhibition at 5 µg/mL: Homo sapiens, NCI-H1299, read-out: Inhibition rate of VEGF secretion
Method: Assay of vascular endothelial cell growth factor (VEGF) in supernatant of tumor cell H1299 culture. The cell was seeded into a 24-well plate (n=3 for each sample). H1299 cell was treated with S1-S6 respectively and cultured for 24 h. The culture supernatants from each group were collected and operated according to the instruction of VEGF-ELISA kit (JIN MEI Corporation). The samples were added, incubated, washed and detected at 450 nm for OD values of each sample. The standard curve was obtained by using different dose of VEGF standards and the secretory volume of VEGF in the supernatant was calculated.

[6] = test system: U87MG, H1299 and HL-60 heterograft tumors; experiment: Inhibition of the growth of nude mouse heterograft tumors; format: in vivo, Balb/c male nude mice; conditions: FIG. 9
Method: Experimental grouping: Balb/c male nude mice were used, each weighted 18-22 g, and three assays were performed. The mice were seeded with U87MG, H1299 and HL-60 respectively. The animals were divided into three groups for each experiment, one as control, one was administered with the dimeric phthalide compounds, and one was administered with monomers of phthalide compound, 6 animals for each group.
For the group which was administered with monomers of phthalide compound, we used n-butylidenephthalide (BP) (Sigma) as active ingredient for tumor suppression, the compound had the structure as follows:
Experimental Process The H1299, HL-60 or U87MG cells growing in logarithmic phase were used. […] When the tumors had gown into 0.1-0.5 cm^3 (about 7-10 days), the animals were intraperitoneal injected with the dimeric phthalide compound S4 (25 mg/kg), S6 (30 mg/kg), S1 (32 mg/kg), each 200 μl; for the group of monomers of phthalide compound, the mice were intraperitoneal injected with n-butylidenephthalide (250 mg/kg); the control group was administered with equal volume of vehicle. The animals were sacrificed after 4 weeks, and the subcutaneous tumors were separated. Photographs were taken (FIG. 9A) and the tumors were weighted (FIG. 9B).

IC50 (K562) [µg/mL] | IC50 (K562/Adr) [µg/mL] | IC50 (KB [1]) [µg/mL] | IC50 (MCF-7) [µg/mL] | IC50 (MCF-7/Adr) [µg/mL] | IC50 (Bel-7402 [2]) [µg/mL] | IC50 (Bel-7402/5-Fu) [µg/mL] | IC50 (SMMC-7721) [µg/mL] | IC50 (SMMC-7721/Adr) [µg/mL] | IC50 (KB [3]) [µg/mL] | IC50 (Bel-7402 [4]) [µg/mL] | SMILES | IC50 (KBv200) [µg/mL] | IC50 (HUVEC) [µg/mL] | IC50 (HDF) [µg/mL] | Supernatant VEGF [5] [ng/ml/10^6 cells] | inhibition at 5 µg/mL [5] [%] | dose needed to reach similar effects compared with the dimeric phthalide compound [6] [folds] | tumor inhibition effect ([6]; intraperitoneal, S4 25 mg/kg, S6 30 mg/kg, S1 32 mg/kg, BP 250 mg/kg, 4 weeks)
17.4 ± 2.06 (≈ 44 µM) | 19.2 ± 1.71 (≈ 48.3 µM) | 19 ± 1.91 (≈ 48 µM) | 32.1 ± 3.21 (≈ 81 µM) | 34 ± 3.06 (≈ 85.7 µM) | 28.1 ± 3.96 (≈ 70.9 µM) | 29.3 ± 2.3 (≈ 74 µM) | 25.4 ± 2 (≈ 64.1 µM) | 26.7 ± 2.6 (≈ 67.3 µM) | 18.9 (≈ 47.7 µM) | 44.3 (≈ 112 µM) | CCC/C=C1\OC(=O)C2=C1CCC1[C@H]2C23C=CCC[C@@H]2C1(C(=O)CCC)OC3=O (single isomer, unassigned) [S3] | 20.4 ± 2.6 (≈ 51.6 µM) | 5.99 (≈ 15.1 µM) | 98.7 (≈ 249 µM) | 268.7 ± 36.13 | 28 |  | 
 |  |  |  |  |  |  |  |  |  |  | CCC/C=C1\OC(=O)c2ccccc21 [BP, n-butylidenephthalide, reference compound] |  |  |  |  |  | ≥ 10 | some inhibition effects
18.4 ± 1.02 (≈ 48.7 µM) | 20.4 ± 1.53 (≈ 54 µM) | 15.8 ± 1.25 (≈ 41.7 µM) | 25.6 ± 2.01 (≈ 67.7 µM) | 29.4 ± 2.8 (≈ 77.8 µM) | 27.9 ± 2.54 (≈ 73.6 µM) | 29.7 ± 1.99 (≈ 78.4 µM) | 37.9 ± 2 (≈ 100 µM) | 38.3 ± 1.87 (≈ 101 µM) | 37.8 (≈ 99.9 µM) | 25.6 (≈ 67.7 µM) | CCC/C=C1\OC(=O)C2=C1CCC1C2C2(OC(=O)c3ccccc32)[C@@H]1CCC (stereo partly shown) [S2] | 16.4 ± 1.98 (≈ 43.2 µM) | 4.76 (≈ 12.6 µM) | 83.2 (≈ 220 µM) | 245.71 ± 34.27 | 34.2 |  | 
